For data set [1], the system named is C57BL/6N mice. The experiment in a line: Acute scratching behavior, histamine-induced. Type of data set: in vivo, mouse. The conditions noted are these: 163 μg i.p., 10 minutes before 100 μg histamine into nape of neck; bouts per 30 minutes. Here is the method: (§1) All experiments using mice followed NIH guidelines and were approved by the National Institute of Dental and Craniofacial Research ACUC. Behavioral assessment of scratching behavior was conducted as follows: 6-8-week old female C57BL/6N mice (Envigo) were injected intraperitoneally with JS-11 (163 μg) or DMSO (20%) as a vehicle control. Ten minutes later, 100 μg histamine diluted in 10 μl PBS or 8.9 μg CYM5442 diluted in 10 μl ddH2O was injected subcutaneously into the nape of the neck. Scratching behavior was recorded for 30 minutes and is presented in bouts per 30 minutes. One bout was defined as scratching behavior towards the injection site between lifting the hind leg from the ground and either putting it back on the ground or guarding the paw with the mouth. To control for motor impairment by JS-11, rota-rod performance was also assessed 10 minutes after intraperitoneal injection.

The nature of data set [2]: Rat liver microsome stability assay. Format: in vitro ADME. The settings on record: pH 7.4; rat liver microsomes. As for the experimental part:
Single time point microsomal stability was determined in a 96-well HTS format. Sample preparation was automated using an EVO 200 robot (Tecan, Switzerland). A high-resolution LC/MS (Thermo QExactive, ThermoFisher (Waltham, Mass.)) instrument was used to measure the percentage of compound remaining after incubation using a known method. Six standard controls were tested in each run: buspirone and propranolol (for short half-life), loperamide and diclofenac (for short to medium half-life), and carbamazepine and antipyrine (for long half-life). Briefly, the incubation consisted of 0.5 mg/mL microsomal protein, 1.0 μM compound concentration, and NADPH regeneration system (containing 0.650 mM NADP+, 1.65 mM glucose 6-phosphate, 1.65 mM MgCl2, and 0.2 U/mL G6PDH) in 100 mM phosphate buffer at pH 7.4. The incubation was carried out at 37° C. for 15 min. The reaction was quenched by adding 555 μL of acetonitrile (1:2 ratio) containing 0.28 μM albendazole (internal standard).
(In general: Liver microsomes are vesicles of endoplasmic reticulum, rich in cytochrome P450 enzymes.)

Data set [3] relates to C57BL/6N mice. The experiment in a line: Contact hypersensitivity (DNFB) model of chronic scratching. Type of data set: in vivo, mouse. The conditions noted are these: 163 μg i.p. As for the experimental part: The contact hypersensitivity model was performed as follows: the back of 6-8-week old female C57BL/6N mice (Envigo) was shaved with electric clippers. After 2 days, 25 μl of 0.5% (v/v) dinitro-fluoro-benzene (DNFB) diluted in a 4:1 mixture of acetone and olive oil was applied to the shaved back skin. Hapten challenge was performed 5 days after sensitization by applying 40 μl of 0.2% (v/v) DNFB in the same vehicle on the left ear and 40 μl of vehicle alone on the right ear. […] Mice were then injected intraperitoneally with JS-11 (163 μg) or DMSO (20%) as a vehicle control. After 10 minutes, scratching was again observed for 30 minutes. To assess skin inflammation, ear thickness was measured with a thickness gauge (Mitutoyo, Aurora, Ill.) before and 30 minutes after JS-11/DMSO injections and normalized to ear thickness before hapten challenge.

Data set [4] in a line: Kinetic solubility assay (μSOL). Type of data set: physicochemical. The conditions noted are these: pH 7.4. As for the experimental part: The μSOL assay was used for kinetic solubility determination, as described in Avdeef, et al., “Drug absorption in vitro model: filter-immobilized artificial membranes. 2. Studies of the permeability properties of lactones in Piper methysticum Forst,” Eur J Pharm Sci 14, 271-280 (2001), which is incorporated by reference herein. In this assay, the classical saturation shake-flask solubility method was adapted as described. Test compounds were prepared as 10 mM DMSO stock solutions and diluted to a final compound concentration of 150 μM in aqueous solution (pH 7.4, 100 mM phosphate buffer). Samples were incubated at room temperature for 6 hours and vacuum-filtered using Te-Vac (Tecan, Morrisville, N.C.) to remove any precipitates. The concentration of the compound in the filtrate was measured via UV absorbance (k 250-498 nm). The unknown compound concentration was determined by comparing the fully solubilized reference plate which contained 17 μM of compound dissolved in spectroscopically pure n-propanol. All compounds were tested in duplicates. The kinetic solubility (μg/mL) of compounds was calculated using the pSOL Evolution software (Pion Inc., Billerica, Mass.). The three controls used were albendazole (low solubility), phenazolpyridine (moderate solubility) and furosemide (high solubility).

Data set [5] deals with C57BL/6N mice. The experiment in a line: Acute scratching behavior, CYM5442-induced. The conditions noted are these: 163 μg i.p., 10 minutes before 8.9 μg CYM5442 into nape of neck; bouts per 30 minutes. Type of data set: in vivo, mouse. Here is the method:
as §1

Data set [6] can be described thus: Parallel artificial membrane permeability assay (PAMPA). The conditions noted are these: pH 7.4. Type of data set: in vitro ADME. From the text:
Stirring double-sink PAMPA method was employed to determine the permeability of compounds via PAMPA. The PAMPA lipid membrane consisted of an artificial membrane of a proprietary lipid mixture and dodecane (Pion Inc., Billerica, Mass.), optimized to predict gastrointestinal tract passive permeability. The lipid was immobilized on a plastic matrix of a 96-well “donor” filter plate placed above a 96-well “acceptor” plate. pH 7.4 solution was used in both donor and acceptor wells. The test articles, stocked in 10 mM DMSO solutions, were diluted to 0.05 mM in aqueous buffer (pH 7.4), and the concentration of DMSO was 0.5% in the final solution. During the 30-minute permeation period at room temperature, the test samples in the donor compartment were stirred using the Gutbox technology (Pion Inc.) to reduce the aqueous boundary layer. The test article concentrations in the donor and acceptor compartments were measured using a UV plate reader (Nano Quant, Infinite® 200 PRO, Tecan). Permeability calculations were performed using Pion Inc. software and were expressed in units of 10-6 cm/s. Compounds with low or weak UV signal were analyzed using high resolution LC/MS (Thermo QExactive, Thermo Fisher).
A general note: PAMPA measures passive passage across an artificial lipid membrane.

“Also recorded” adds a separate entry of the source.

In general, half-life refers to the time in which the quantity being followed falls by half. The low end stands for fast loss, the high end for slow loss. The term Papp denotes a coefficient for how fast a substance crosses the barrier. Read a high Papp as ready permeation. Turning to `Cc1cc(CNC(=O)c2ccc3c(c2)n(CC2CC2)c(=O)n3C2CCCCC2)on1` [JS-11, 1-cyclohexyl-3-(cyclopropylmethyl)-N-((3-methylisoxazol-5-yl)methyl)-2-oxo-2,3-dihydro-1H-benzo[d]imidazole-5-carboxamide], the “Scratching responses to histamine” value with C57BL/6N mice [1] is reported as “reduced scratching responses to histamine by more than half; also recorded: significantly attenuated”. The half-life at 1 μM in data set [2] came to 12.4 min. Further, the “Skin inflammation (% ear thickness) after hapten challenge” value in the data set on C57BL/6N mice [3] (measured before and 30 minutes after injection) is on record as “had no effect on skin inflammation; also recorded: no differences in % ear thickness were detectable”. The Hapten-induced scratching responses result in the data set on C57BL/6N mice [3] (scratching observed 30 minutes, from 10 minutes after injection) is recorded as “attenuated hapten-induced scratching responses by about a half; also recorded: significantly reduced”. In addition, the water solubility result in data set [4] was “relatively high-water solubility”. In the data set on C57BL/6N mice [5], the “Scratching responses to CYM5442” value is reported as “strongly attenuated itch response; also recorded: significantly attenuated”. Besides, the Papp at 30 min, 0.05 mM in data set [6] came out at 7.4 ×10⁻⁶ cm/s.

For the origin of these results see patent US11324725B2, “Compositions and methods for the inhibition of pruritus” (The United States of America, as represented by the …, priority 2017, dated 2022).
